Columns and labels:
[1] = target: Proto-oncogene tyrosine-protein kinase receptor Ret (Homo sapiens, UniProt P07949, S891A); assay: Inhibition of human Ret S891A mutant by radiometric assay in presence of [gamma-33P]-ATP
[2] = Inhibition of recombinant human PKA by radiometric assay in presence of [gamma-33P]-ATP
[3] = target: Dual specificity mitogen-activated protein kinase kinase 1 (Homo sapiens, UniProt Q02750); assay: Inhibition of recombinant human MEK1 by radiometric assay in presence of [gamma-33P]-ATP
[4] = Cytotoxicity against mouse BAF3 cells after 48 hrs by MTT assay; format: cell-based
[5] = Induction of apoptosis in human Nthy-ori 3-1 cells at 10 uM after 48 hrs by annexinV/PI staining-based flow cytometric analysis; format: cell-based; conditions: nthy-ori 3-1, 48 h
[6] = target: Proto-oncogene tyrosine-protein kinase receptor Ret (Homo sapiens, UniProt P07949, G691S); assay: Inhibition of human Ret G691S mutant by radiometric assay in presence of [gamma-33P]-ATP
[7] = target: Cytochrome P450 3A4 (Homo sapiens, UniProt P08684); assay: Inhibition of CYP3A4 (unknown origin); format: ADME
[8] = system: Proto-oncogene tyrosine-protein kinase receptor Ret (Homo sapiens), P07949 [V804M]; conditions: BaF3
[9] = target: Proto-oncogene tyrosine-protein kinase receptor Ret (Homo sapiens, UniProt P07949, Y791F); assay: Inhibition of human Ret Y791F mutant by radiometric assay in presence of [gamma-33P]-ATP
[10] = target: Proto-oncogene tyrosine-protein kinase receptor Ret (Homo sapiens, UniProt P07949, M918T); assay: Inhibition of human Ret M918T mutant by radiometric assay in presence of [gamma-33P]-ATP
[11] = Ratio of GI50 for human Nthy-ori-3-1 cells to GI50 for RET C634W mutant-mediated human TT cell growth inhibition
[12] = target: Vascular endothelial growth factor receptor 3 (Homo sapiens, UniProt P35916); assay: Inhibition of recombinant human FLT4 by radiometric assay in presence of [gamma-33P]-ATP
[13] = target: Cytochrome P450 2C19 (Homo sapiens, UniProt P33261); assay: Inhibition of CYP2C19 (unknown origin); format: ADME
Sequence of Cytochrome P450 2C19 (P33261 whole entry): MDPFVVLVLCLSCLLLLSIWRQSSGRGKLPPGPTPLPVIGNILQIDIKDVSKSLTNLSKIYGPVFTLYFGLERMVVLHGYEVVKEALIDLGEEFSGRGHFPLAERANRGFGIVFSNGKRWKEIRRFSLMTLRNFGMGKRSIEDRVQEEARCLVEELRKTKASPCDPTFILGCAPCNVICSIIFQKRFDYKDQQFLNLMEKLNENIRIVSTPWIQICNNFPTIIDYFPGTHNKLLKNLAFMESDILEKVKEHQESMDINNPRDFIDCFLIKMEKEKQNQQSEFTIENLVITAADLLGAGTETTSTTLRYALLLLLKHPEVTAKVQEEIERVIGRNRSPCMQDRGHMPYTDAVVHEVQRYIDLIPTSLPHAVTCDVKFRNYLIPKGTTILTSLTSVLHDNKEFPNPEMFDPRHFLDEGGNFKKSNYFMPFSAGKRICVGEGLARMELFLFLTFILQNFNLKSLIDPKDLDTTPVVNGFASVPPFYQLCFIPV

[14] = target: Cytochrome P450 2C9 (Homo sapiens, UniProt P11712); assay: Inhibition of CYP2C9 (unknown origin); format: ADME
Sequence of Cytochrome P450 2C9 (P11712 whole entry): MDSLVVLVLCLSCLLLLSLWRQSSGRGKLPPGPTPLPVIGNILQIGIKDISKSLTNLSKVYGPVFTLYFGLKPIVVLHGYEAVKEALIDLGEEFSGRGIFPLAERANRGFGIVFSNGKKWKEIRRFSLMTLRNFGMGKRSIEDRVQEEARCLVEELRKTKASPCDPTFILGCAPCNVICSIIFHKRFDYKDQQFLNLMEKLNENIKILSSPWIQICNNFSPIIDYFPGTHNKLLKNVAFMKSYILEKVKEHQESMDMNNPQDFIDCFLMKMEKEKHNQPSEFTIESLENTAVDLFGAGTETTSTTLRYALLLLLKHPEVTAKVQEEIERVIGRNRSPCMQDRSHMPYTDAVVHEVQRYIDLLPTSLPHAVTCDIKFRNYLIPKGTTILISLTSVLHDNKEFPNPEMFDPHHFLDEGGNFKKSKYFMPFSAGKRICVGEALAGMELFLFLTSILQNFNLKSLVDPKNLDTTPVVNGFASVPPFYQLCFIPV

[15] = target: Proto-oncogene tyrosine-protein kinase receptor Ret (Homo sapiens, UniProt P07949, V804M); assay: Inhibition of human Ret V804M mutant by radiometric assay in presence of [gamma-33P]-ATP
Sequence of Proto-oncogene tyrosine-protein kinase receptor Ret (Homo sapiens, UniProt P07949, V804M) (P07949 29-1114 V804M limits assumed): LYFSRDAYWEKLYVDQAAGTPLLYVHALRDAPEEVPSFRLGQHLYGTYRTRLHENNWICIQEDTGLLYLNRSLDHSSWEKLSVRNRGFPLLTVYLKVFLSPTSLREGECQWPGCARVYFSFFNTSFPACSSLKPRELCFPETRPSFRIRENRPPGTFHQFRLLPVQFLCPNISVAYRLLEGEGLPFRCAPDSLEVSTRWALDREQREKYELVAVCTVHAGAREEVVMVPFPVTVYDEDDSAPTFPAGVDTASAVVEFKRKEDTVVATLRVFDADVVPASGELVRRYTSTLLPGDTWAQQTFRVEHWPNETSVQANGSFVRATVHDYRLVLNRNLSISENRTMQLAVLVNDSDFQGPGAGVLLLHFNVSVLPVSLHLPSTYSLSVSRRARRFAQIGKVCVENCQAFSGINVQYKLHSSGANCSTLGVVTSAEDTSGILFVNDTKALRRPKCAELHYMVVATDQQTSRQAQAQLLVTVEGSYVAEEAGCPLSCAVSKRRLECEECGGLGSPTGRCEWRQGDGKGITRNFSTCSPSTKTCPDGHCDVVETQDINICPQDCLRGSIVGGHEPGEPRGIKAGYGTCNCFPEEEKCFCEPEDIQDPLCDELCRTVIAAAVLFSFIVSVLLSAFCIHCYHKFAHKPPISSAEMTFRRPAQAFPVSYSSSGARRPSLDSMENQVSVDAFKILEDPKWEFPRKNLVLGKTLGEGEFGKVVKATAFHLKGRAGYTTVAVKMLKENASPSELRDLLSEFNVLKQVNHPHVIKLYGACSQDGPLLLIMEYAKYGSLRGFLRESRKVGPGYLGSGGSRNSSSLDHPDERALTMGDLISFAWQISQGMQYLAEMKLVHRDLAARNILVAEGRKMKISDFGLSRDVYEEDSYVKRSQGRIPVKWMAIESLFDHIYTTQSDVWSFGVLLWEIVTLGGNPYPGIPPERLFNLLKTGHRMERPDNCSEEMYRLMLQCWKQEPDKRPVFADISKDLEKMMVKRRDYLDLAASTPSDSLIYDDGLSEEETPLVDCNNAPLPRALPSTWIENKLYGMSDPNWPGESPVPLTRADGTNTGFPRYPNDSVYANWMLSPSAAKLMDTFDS

[16] = target: Tyrosine-protein kinase Fgr (Homo sapiens, UniProt P09769); assay: Inhibition of recombinant human FGR by radiometric assay in presence of [gamma-33P]-ATP
Sequence of Tyrosine-protein kinase Fgr (P09769 whole entry, the tested form may be a part): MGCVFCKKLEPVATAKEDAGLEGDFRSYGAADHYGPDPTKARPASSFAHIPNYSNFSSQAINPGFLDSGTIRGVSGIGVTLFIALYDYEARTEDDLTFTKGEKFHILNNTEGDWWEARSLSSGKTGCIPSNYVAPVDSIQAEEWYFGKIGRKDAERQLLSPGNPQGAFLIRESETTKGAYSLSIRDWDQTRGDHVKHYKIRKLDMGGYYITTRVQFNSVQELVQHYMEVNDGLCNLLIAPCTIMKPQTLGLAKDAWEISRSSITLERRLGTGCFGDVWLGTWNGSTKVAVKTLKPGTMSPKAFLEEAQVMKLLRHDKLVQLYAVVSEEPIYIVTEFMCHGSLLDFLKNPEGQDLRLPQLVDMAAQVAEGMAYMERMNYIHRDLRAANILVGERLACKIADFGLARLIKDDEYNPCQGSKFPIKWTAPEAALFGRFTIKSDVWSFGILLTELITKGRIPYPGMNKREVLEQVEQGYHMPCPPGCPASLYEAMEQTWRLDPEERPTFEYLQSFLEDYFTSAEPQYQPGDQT

[17] = target: T1, Vascular endothelial growth factor receptor 2 (Homo sapiens, UniProt P35968); assay: Inhibition of TEL-fused VEGFR2 (unknown origin) expressed in mouse BA/F3 cells assessed as cell growth inhibition; format: cell-based; conditions: baf3
T1 sequence (P35968 whole entry, the tested form may be a part): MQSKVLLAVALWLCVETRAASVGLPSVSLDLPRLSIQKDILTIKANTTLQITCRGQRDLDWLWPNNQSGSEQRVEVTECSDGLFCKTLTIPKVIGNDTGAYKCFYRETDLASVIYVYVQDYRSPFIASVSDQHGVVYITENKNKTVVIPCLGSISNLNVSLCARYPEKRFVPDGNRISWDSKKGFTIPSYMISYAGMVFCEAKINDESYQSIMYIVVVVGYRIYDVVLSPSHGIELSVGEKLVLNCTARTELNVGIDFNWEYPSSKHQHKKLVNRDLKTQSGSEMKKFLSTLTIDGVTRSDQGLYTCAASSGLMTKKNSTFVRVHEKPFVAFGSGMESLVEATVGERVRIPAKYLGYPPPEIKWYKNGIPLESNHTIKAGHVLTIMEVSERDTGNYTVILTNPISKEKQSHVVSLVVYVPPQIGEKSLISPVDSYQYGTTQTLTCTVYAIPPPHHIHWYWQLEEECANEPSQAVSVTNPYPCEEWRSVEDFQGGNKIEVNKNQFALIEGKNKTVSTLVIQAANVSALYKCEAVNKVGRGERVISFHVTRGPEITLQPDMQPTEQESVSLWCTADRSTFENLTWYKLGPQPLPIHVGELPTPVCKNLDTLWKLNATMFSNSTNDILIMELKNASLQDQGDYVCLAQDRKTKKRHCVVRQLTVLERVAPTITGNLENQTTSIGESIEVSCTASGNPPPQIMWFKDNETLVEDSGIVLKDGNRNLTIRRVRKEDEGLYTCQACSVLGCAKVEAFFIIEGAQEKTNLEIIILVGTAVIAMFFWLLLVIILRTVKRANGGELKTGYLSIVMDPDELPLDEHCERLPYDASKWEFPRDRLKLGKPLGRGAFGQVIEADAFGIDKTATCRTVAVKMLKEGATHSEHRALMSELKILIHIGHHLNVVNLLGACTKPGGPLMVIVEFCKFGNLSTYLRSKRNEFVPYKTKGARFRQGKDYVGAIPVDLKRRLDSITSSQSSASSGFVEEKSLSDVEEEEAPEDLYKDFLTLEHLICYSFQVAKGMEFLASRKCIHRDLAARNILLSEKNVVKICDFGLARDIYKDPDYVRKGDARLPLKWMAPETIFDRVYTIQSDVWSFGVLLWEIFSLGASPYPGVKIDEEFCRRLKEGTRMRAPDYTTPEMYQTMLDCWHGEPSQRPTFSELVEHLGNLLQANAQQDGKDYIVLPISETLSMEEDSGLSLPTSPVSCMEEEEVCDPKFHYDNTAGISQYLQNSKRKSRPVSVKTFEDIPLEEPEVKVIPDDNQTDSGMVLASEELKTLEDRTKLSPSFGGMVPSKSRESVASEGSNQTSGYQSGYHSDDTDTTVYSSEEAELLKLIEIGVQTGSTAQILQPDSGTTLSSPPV

[18] = target: Ribosomal protein S6 kinase alpha-1 (Homo sapiens, UniProt Q15418); assay: Inhibition of recombinant human RSK1 by radiometric assay in presence of [gamma-33P]-ATP
[19] = target: T2, Proto-oncogene tyrosine-protein kinase receptor Ret (Homo sapiens, UniProt P07949); conditions: BaF3
T2 sequence (P07949 whole entry): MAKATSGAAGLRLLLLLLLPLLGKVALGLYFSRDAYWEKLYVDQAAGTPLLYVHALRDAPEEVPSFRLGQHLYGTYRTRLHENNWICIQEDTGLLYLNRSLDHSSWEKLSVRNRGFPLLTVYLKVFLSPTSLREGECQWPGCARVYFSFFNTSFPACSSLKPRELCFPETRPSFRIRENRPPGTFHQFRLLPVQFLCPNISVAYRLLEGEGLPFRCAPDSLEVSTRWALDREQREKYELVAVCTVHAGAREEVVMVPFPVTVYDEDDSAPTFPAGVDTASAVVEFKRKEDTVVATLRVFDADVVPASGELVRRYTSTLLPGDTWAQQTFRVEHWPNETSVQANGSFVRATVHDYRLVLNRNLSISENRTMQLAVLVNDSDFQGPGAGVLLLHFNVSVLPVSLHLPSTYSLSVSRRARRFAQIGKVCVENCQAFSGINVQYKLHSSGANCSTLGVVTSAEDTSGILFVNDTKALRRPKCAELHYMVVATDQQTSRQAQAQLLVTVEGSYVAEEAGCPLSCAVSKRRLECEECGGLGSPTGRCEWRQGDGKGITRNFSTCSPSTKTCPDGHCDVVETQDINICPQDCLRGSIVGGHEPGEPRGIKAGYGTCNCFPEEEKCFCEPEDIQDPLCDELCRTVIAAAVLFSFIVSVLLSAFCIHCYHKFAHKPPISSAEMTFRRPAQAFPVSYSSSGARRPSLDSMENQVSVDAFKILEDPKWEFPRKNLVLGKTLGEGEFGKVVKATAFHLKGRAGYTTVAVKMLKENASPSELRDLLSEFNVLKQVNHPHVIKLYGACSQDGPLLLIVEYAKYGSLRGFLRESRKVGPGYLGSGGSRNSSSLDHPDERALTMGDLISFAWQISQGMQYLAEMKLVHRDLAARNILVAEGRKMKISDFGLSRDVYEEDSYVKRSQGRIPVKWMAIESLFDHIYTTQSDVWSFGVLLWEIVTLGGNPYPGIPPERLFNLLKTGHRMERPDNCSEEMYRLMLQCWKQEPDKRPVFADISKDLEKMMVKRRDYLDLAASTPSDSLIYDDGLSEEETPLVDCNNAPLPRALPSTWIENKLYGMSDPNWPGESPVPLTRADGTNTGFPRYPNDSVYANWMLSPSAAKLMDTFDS
Description: Inhibition of wild type TEL-fused RET (unknown origin) expressed in mouse BA/F3 cells assessed as cell growth inhibition after 48 hrs by MTT assay

[20] = Cytotoxicity against human Nthy-ori 3-1 cells after 10 days by MTT assay; format: cell-based
[21] = Half life in human liver microsomes; format: ADME
[22] = system: Proto-oncogene tyrosine-protein kinase receptor Ret (Homo sapiens), P07949 [S891A]; conditions: BaF3
[23] = target: Dual specificity mitogen-activated protein kinase kinase 2 (Homo sapiens, UniProt P36507); assay: Inhibition of recombinant human MEK2 by radiometric assay in presence of [gamma-33P]-ATP
[24] = target: Voltage-gated inwardly rectifying potassium channel KCNH2 (Homo sapiens, UniProt Q12809); assay: Inhibition of human ERG assessed as prolongation of QT-interval at 100 uM by patch-clamp assay
[25] = target: Cytochrome P450 1A2 (Homo sapiens, UniProt P05177); assay: Inhibition of CYP1A2 (unknown origin); format: ADME
[26] = target: T1, Vascular endothelial growth factor receptor 2; assay: Inhibition of recombinant human VGFR2 by radiometric assay in presence of [gamma-33P]-ATP
[27] = target: Tyrosine-protein kinase HCK (Homo sapiens, UniProt P08631); assay: Inhibition of recombinant human HCK by radiometric assay in presence of [gamma-33P]-ATP
[28] = target: T2, Proto-oncogene tyrosine-protein kinase receptor Ret; assay: Inhibition of human wild type RET by radiometric assay in presence of [gamma-33P]-ATP
[29] = Cell cycle arrest in human Nthy-ori 3-1 cells assessed as accumulation at G2 phase at 10 uM after 24 hrs by […] staining-based flow cytometric analysis; conditions: nthy-ori 3-1, 24 h
[30] = system: Proto-oncogene tyrosine-protein kinase receptor Ret (Homo sapiens), P07949 [V804L]; conditions: BaF3
[31] = system: TT; assay: Cytotoxicity against human TT cells assessed as suppression of anchorage-independent growth at 0.3 to 1 uM for 30 days by soft agar assay; format: functional
[32] = system: Proto-oncogene tyrosine-protein kinase receptor Ret (Homo sapiens), P07949 [C634W]; conditions: TT
Description: Inhibition of RET C634W mutant in human TT cells assessed as cell growth inhibition after 10 days by MTT assay

[33] = target: Cytochrome P450 2D6 (Homo sapiens, UniProt P10635); assay: Inhibition of CYP2D6 (unknown origin); format: ADME
[34] = target: Ribosomal protein S6 kinase beta-1 (Homo sapiens, UniProt P23443); assay: Inhibition of recombinant human p70S6K by radiometric assay in presence of [gamma-33P]-ATP
[35] = target: Proto-oncogene tyrosine-protein kinase receptor Ret (Homo sapiens, UniProt P07949, V804L); assay: Inhibition of human Ret V804L mutant by radiometric assay in presence of [gamma-33P]-ATP

Question: What does the source list for `CC(C)n1nc(-c2cc(C3CC3)on2)c2c(N)ncnc21`?
Answer: IC50 [1]: 2 nM; IC50 [2]: 39 nM; IC50 [3]: 142 nM; GI50 at 48 h [4]: > 10000 nM; Activity [5]: Non-toxic; IC50 [6]: 10 nM; IC50 [7]: > 30000 nM; GI50 [8]: 320 nM; IC50 [9]: 3 nM; IC50 [10]: 6 nM; RatioGI50 [11]: 50; IC50 [12]: 72 nM; IC50 [13]: > 30000 nM; IC50 [14]: > 30000 nM; IC50 [15]: 4 nM; IC50 [16]: 65 nM; GI50 [17]: 3000 nM; IC50 [18]: 311 nM; GI50 [19]: 80 nM; GI50 at 240 h [20]: 13700 nM; half-life [21]: 13 min; GI50 [22]: 90 nM; IC50 [23]: 82 nM; inhibition (INH) [24]: Not Active; IC50 [25]: 2000 nM; IC50 [26]: 96 nM; IC50 [27]: 137 nM; IC50 [28]: 1.4 nM; Activity [29]: Non-toxic; GI50 [30]: 500 nM; Activity [31]: 150 CFU; GI50 [32]: 240 nM; IC50 [33]: > 30000 nM; IC50 [34]: 23 nM; IC50 [35]: 21 nM

— ChEMBL document CHEMBL3751668, “A Pyrazolo[3,4-d]pyrimidin-4-amine Derivative Containing an Isoxazole Moiety Is a Selective and Potent Inhibitor of RET Gatekeeper Mutants” (J Med Chem, 2016)
